Source: patent publication US20260250426A1, “AMPHIPHILIC CELLULOSE DERIVATIVES, METHODS OF MAKING, AND USES THEREOF” (Virginia Tech Intellectual Properties, Inc., priority 2022, published 2026)

Assay: Polymer solubility in pH 6.8 buffer (visual inspection)
Procedure: A general workflow for evaluating cellulose ester derivatives for ASD applications can include evaluating polymer solubility, nucleation time, and surface tension. Polymer solubility was evaluated by examining solubility in pH 6.8 buffer and organic solvents. Nucleation induction time was measured using 9 different polymers and 3 model therapeutic compounds. Surface tension was determined by correlating surface tension and induction time.

CA320S Glutarate [CA320GA]
Water solubility (in words): water-soluble
